These are literature values, as cited in US20260199285A1, “TAXANE FORMULATIONS” (BIOPURIFICATION, LLC, priority 2022, published 2026).

Molecules are shown by their SMILES.

Data set [1] has as its system tubulin depolymerization.
In data set [2] the test system is advanced breast carcinoma.

Regarding `CC(=O)O[C@@]12CO[C@@H]1C[C@H](O)[C@@]1(C)C(=O)[C@H](O)C3=C(C)[C@@H](OC(=O)[C@H](O)[C@@H](NC(=O)OC(C)(C)C)c4ccccc4)C[C@@](O)([C@@H](OC(=O)c4ccccc4)[C@H]21)C3(C)C` [docetaxel], the “inhibitory activity of tubulin depolymerization relative to paclitaxel” value in data set [1] was “about 2 times”. The “effective ratio for treatment of advanced breast carcinoma” value in data set [2] is listed as 49%.
